Measured values: US20250197357A1, “PPARG INVERSE AGONISTS AND USES THEREOF” (Flare Therapeutics Inc., priority 2022, published 2025)

Key:
[1] = molecular target: T1, PPARG/RXRA LBD heterodimer (Homo sapiens, UniProt P37231); experiment: PPARγ-MED1 blockade assay (TR-FRET); format: binding; conditions: MED1 LxxLL peptide, 80 nM Rosiglitazone, 3 hours
T1 construct: His-TEV-Q203-Y477; Uniprot ID P37231-2; made in house; host or cells: E. coli
T1 sequence (P37231 203-477 isoform P37231-2): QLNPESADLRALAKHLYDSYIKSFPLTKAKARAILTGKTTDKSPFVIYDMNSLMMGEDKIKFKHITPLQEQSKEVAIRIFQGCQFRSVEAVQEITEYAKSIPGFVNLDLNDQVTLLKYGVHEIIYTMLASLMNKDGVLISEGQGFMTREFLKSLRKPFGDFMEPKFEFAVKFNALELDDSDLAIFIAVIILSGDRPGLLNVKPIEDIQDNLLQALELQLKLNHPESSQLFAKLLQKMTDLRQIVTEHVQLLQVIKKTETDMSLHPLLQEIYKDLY
T1 sequence (P19793 228-462 partner limits assumed): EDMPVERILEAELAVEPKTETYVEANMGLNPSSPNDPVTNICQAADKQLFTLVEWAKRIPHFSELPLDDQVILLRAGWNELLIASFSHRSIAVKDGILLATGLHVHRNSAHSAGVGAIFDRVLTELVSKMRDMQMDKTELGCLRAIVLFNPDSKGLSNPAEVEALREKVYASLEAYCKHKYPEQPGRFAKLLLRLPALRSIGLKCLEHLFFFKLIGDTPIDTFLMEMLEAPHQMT
Procedure: Compound potency (IC50) and maximal extent of MED1 repulsion to PPARG were assessed a TR-FRET binding assay measuring association of a biotinylated MED1 LxxLL peptide (Biotin—[…]-amide) to PPARG/RXRA LBD heterodimer. Specifically, a 20 microliters of TR-FRET master mix consisting of 2 nM WT PPARG LBD (e. coli expressed, His-TEV-Q203-Y477; Uniprot ID P37231-2), 2 nM WT RXRA LBD (e. coli expressed, Flag-TEV-E228-T462; […]. Mixtures were incubated for 3 hours and read in an EnVision plate reader (Perkin Elmer) with Ex/Em 615/665. To determine the potency (IC50) and extent of MED1 repulsion, TR-FRET ratios were normalized to the average ratio of DMSO control wells (0%) and to the average minimum ratio for positive control compound (GW9662 (2-chloro-5-nitrobenzanilide); defined as 100%) in CDD Vault and analyzed using the Levenberg-Marquardt algorithm.

[2] = molecular target: T2, PPARG/RXRA LBD heterodimer (Homo sapiens, UniProt P37231); experiment: PPARγ-NCOR1 recruitment assay (TR-FRET); format: binding; conditions: NCOR1 ID2 peptide, 80 nM Rosiglitazone, 3 hours, read-out: PPARG - NCOR recruitment assay EC50
T2 construct: 2 nM WT PPARG LBD (e. coli expressed, His-TEV-Q203-Y477); fused on or other part: N-terminal His tag with TEV site on the PPARG LBD
Procedure: Compound potency (EC50) and maximal extent of NCOR1 recruitment to PPARG were assessed a TR-FRET binding assay measuring association of a biotinylated NCOR1 ID2 peptide (Biotin-[…]-amide) to PPARG/RXRA LBD heterodimer. Specifically, a 20 microliters of TR-FRET master mix consisting of 2 nM WT PPARG LBD (e. coli expressed, His-TEV-Q203-Y477; Uniprot ID P37231-2), 2 nM WT RXRA LBD or mutant S427F RXRA LBD (e. coli expressed, Flag-TEV-E228-T462; […]. Mixtures were incubated for 3 hours and read in an EnVision plate reader (Perkin Elmer) with Ex/Em 615/665. To determine the potency (EC50) and extent of NCOR1 recruitment, TR-FRET ratios were normalized to the average ratio of DMSO control wells (0%) and to the average maximum ratio for positive control compound (T0070907 (2-chloro-5-nitro-N-4-pyridinyl-benzamide); defined as 100%) in CDD Vault and analyzed using the Levenberg-Marquardt algorithm.
T2 sequence (O75376 2251-2273 limits assumed, one chain of several, further chain): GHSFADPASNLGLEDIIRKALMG

[3] = system: ANGPTL4, a PPARG target gene, in HT1197 (RXRA S427F mutation) cells; experiment: Bladder cancer pharmacodynamic assay (HT1197 cell assay, qPCR of PPARG target genes); format: cell-based; conditions: Homo sapiens; for inhibition at 0.1 µM: 100 nM compound, 24 hours, relative to DMSO control; for EC50: 24 hours treatment, qPCR
Procedure: 5637 (PPARG amplified) and HT1197 (RXRA S427F mutation) cells were used for assessment of modulation of PPARG target genes using quantitative PCR. Cells were treated for 24 hours with PPARG inverse agonists prior to analysis of FABP4 (IDT, Cat: Hs.PT 58.20106818) and ANGPTL4 (IDT, Cat: Hs.PT 58.25480012) expression, with expression of the housekeeping gene TBP (IDT, Cat: Hs.PT 58v.39858774) used to normalize expression across samples. Quantitative PCR was performed using an ABI QuantStudio 7 Flex Reaction system. Data were analyzed and reported relative to DMSO control using the comparative Ct method (ΔΔCt).

EC50 [1] [nM]	EC50 [2] [nM]	EC50 [3] [nM]	SMILES	inhibition at 0.1 µM [3] [%]
100 to 1000	100 to 1000	5.2	CS(=O)(=O)c1ccc(C#N)cc1C(=O)Nc1ccc(C#N)c(Cl)c1 [Example 1, N-(3-chloro-4-cyanophenyl)-5-cyano-2-(methylsulfonyl)benzamide]	86
100 to 1000	100 to 1000		Cc1ccc(-c2c(F)cc(NC(=O)c3cc(C#N)ccc3S(C)(=O)=O)cc2F)cn1 [Example 4, 5-cyano-N-(3,5-difluoro-4-(6-methylpyridin-3-yl)phenyl)-2-(methylsulfonyl) benzamide]	74
100 to 1000	100 to 1000		CS(=O)(=O)c1ccc(C#N)cc1C(=O)Nc1cc(Cl)cc(Cl)c1 [Example 8, 5-cyano-N-(3,5-dichlorophenyl)-2-(methylsulfonyl) benzamide]	41
> 10000	> 10000		CN1CCN(c2ccc(NC(=O)c3cc(C#N)ccc3S(C)(=O)=O)cn2)CC1 [Example 12, 5-cyano-N-(6-(4-methylpiperazin-1-yl)pyridin-3-yl)-2-(methylsulfonyl) benzamide]	25
10 to 100	10 to 100		CS(=O)(=O)c1ccc(C#N)cc1C(=O)Nc1cc(F)cc(Oc2ccc(Cl)cc2)c1 [Example 16, N-(3-(4-chlorophenoxy)-5-fluorophenyl)-5-cyano-2-(methylsulfonyl) benzamide]	

Further lines, the compound ahead of its results:

SMILES	EC50 [1] [nM]	EC50 [2] [nM]	EC50 [3] [nM]	inhibition at 0.1 µM [3] [%]
N#Cc1ccc(SC(F)(F)F)c(C(=O)Nc2cc(F)c(-c3ccc(C(F)F)nc3)c(F)c2)c1 [Example 2, 5-cyano-N-(4-(6-(difluoromethyl)pyridin-3-yl)-3,5-difluorophenyl)-2-((trifluorometh-yl)thio)benzamide]	100 to 1000	100 to 1000		83
Cc1ccc(-c2c(F)cc(NC(=O)c3cc(C#N)ccc3SC(F)(F)F)cc2F)cn1 [Example 3, 5-cyano-N-(3,5-difluoro-4-(6-methylpyridin-3-yl)phenyl)-2-((trifluorometh-yl)thio)benzamide]	100 to 1000	10 to 100		57
CS(=O)(=O)c1ccc(C#N)cc1C(=O)Nc1cc(F)cc(F)c1 [Example 5, 5-cyano-N-(3,5-difluorophenyl)-2-(methylsulfonyl) benzamide]	1000 to 10000	100 to 1000		40
N#Cc1ccc(SC(F)(F)F)c(C(=O)Nc2cc(F)cc(F)c2)c1 [Example 6, 5-cyano-N-(3,5-difluorophenyl)-2-(trifluorometh-ylsulfanyl)ben-zamide]	100 to 1000	100 to 1000		54
CS(=O)(=O)c1ccc(C#N)cc1C(=O)Nc1ccc(C#N)c(C(F)(F)F)c1 [Example 7, 5-cyano-N-(4-cyano-3-(trifluorometh-yl)phenyl)-2-(methylsulfonyl) benzamide]	1000 to 10000	1000 to 10000		77
CS(=O)(=O)c1ccc(C#N)cc1C(=O)Nc1ccnc(C(F)(F)F)c1 [Example 9, 5-cyano-2-(methylsulfonyl)-N-(2-(trifluorometh-yl)pyridin-4-yl)benzamide]	1000 to 10000	1000 to 10000		64
CS(=O)(=O)c1ccc(C#N)cc1C(=O)Nc1ccc(C(F)(F)F)c(C#N)c1 [Example 10, 5-cyano-N-(3-cyano-4-(trifluorometh-yl)phenyl)-2-(methylsulfonyl) benzamide]	100 to 1000	100 to 1000		48
CN1Cc2ccc(-c3c(F)cc(NC(=O)c4cc(C#N)ccc4S(C)(=O)=O)cc3F)cc2C1=O [Example 11, 5-cyano-N-(3,5-difluoro-4-(2-methyl-3-oxoisoindolin-5-yl)phenyl)-2-(methylsulfonyl) benzamide]	100 to 1000	10 to 100	1.3	79
